Measurements from patent US20250051356A1, “RIFABUTIN ANALOGS FOR THE TREATMENT OF DISEASE” (priority 2021, published 2025).
≈ marks a conversion by molar mass, not a printed value. Where two headings read alike, the source gives them in different places.

Columns and labels:
Type in all cases: cell-based
[1] = tested on: S. aureus (UAMS-1625 strain); assay: MIC by broth microdilution against S. aureus; conditions: Staphylococcus aureus, read-out: MIC S. aureus
[2] = tested on: M. abscessus subsp. abscessus ATCC 19977; assay: MIC against M. abscessus in Middlebrook 7H9 + ADC; conditions: Mycobacteroides abscessus
[3] = tested on: A. baumannii (HUMC1 strain); assay: MIC by broth microdilution against A. baumannii in RPMI + 10% FCS; conditions: Acinetobacter baumannii, read-out: MIC A. baumannii
[4] = ATCC19977, ATCC 19977, 7H9 + ADC, read-out: MIC M. abscessus
[5] = ATCC19977, read-out: MIC M. abscessus

Structure (SMILES)	MIC [1] [µg/mL]	MIC [2, 4] [µg/mL]	MIC ([3]; HUMC1 strain, RPMI + 10% FCS) [µg/mL]	MIC [2, 5] [µg/mL]	MIC [3] [µg/mL]
CO[C@H]1/C=C/O[C@@]2(C)Oc3c(C)c(O)c4c(c3C2=O)C2=NC3(CCN(CC(C)C)CC3)NC2=C(NC(=O)/C(C)=C\C=C\[C@H](C)[C@H](O)[C@@H](C)[C@@H](O)[C@@H](C)[C@H](OC(=O)CC(=O)Nc2ccc(CN3CCN(C)CC3)cc2)[C@@H]1C)C4=O [Compound 36]	0.016 (≈ 0.0148 µM)	1	≤ 0.002		
CO[C@H]1/C=C/O[C@@]2(C)Oc3c(C)c(O)c4c(c3C2=O)C2=NC3(CCN(CC(C)C)CC3)NC2=C(NC(=O)/C(C)=C\C=C\[C@H](C)[C@H](O)[C@@H](C)[C@@H](O)[C@@H](C)[C@H](OC(=O)C(C)C(=O)N2CCCCC2)[C@@H]1C)C4=O (stereo partly drawn) [Compound 37]	0.03 (≈ 0.0309 µM)	0.5	≤ 0.002		
CO[C@H]1/C=C/O[C@@]2(C)Oc3c(C)c(O)c4c(c3C2=O)C2=NC3(CCN(CC(C)C)CC3)NC2=C(NC(=O)/C(C)=C\C=C\[C@H](C)[C@H](O)[C@@H](C)[C@@H](O)[C@@H](C)[C@H](OC(=O)C(C)C(=O)N2CCN(c3ccccc3S(N)(=O)=O)CC2)[C@@H]1C)C4=O (stereo partly drawn) [Compound 38]	0.25 (≈ 0.222 µM)	0.5	0.008		
CO[C@H]1/C=C/O[C@@]2(C)Oc3c(C)c(O)c4c(c3C2=O)C2=NC3(CCN(CC(C)C)CC3)NC2=C(NC(=O)/C(C)=C\C=C\[C@H](C)[C@H](O)[C@@H](C)[C@@H](O)[C@@H](C)[C@H](OC(=O)C(C)C(=O)N2CCC(Nc3ccccc3)CC2)[C@@H]1C)C4=O (stereo partly drawn) [Compound 41]	0.5 (≈ 0.47 µM)			0.5	0.016
CO[C@H]1/C=C/O[C@@]2(C)Oc3c(C)c(O)c4c(c3C2=O)C2=NC3(CCN(CC(C)C)CC3)NC2=C(NC(=O)/C(C)=C\C=C\[C@H](C)[C@H](O)[C@@H](C)[C@@H](O)[C@@H](C)[C@H](OC(=O)C(C)C(=O)N2CCC(n3c(=O)[nH]c5ccccc53)CC2)[C@@H]1C)C4=O (stereo partly drawn) [Compound 42]	0.5 (≈ 0.453 µM)	0.5	0.03		
CO[C@H]1/C=C/O[C@@]2(C)Oc3c(C)c(O)c4c(c3C2=O)C2=NC3(CCN(CC(C)C)CC3)NC2=C(NC(=O)/C(C)=C\C=C\[C@H](C)[C@H](O)[C@@H](C)[C@@H](O)[C@@H](C)[C@H](OC(=O)C(C)C(=O)N2CCc3[nH]c5ccccc5c3C2)[C@@H]1C)C4=O (stereo partly drawn) [Compound 43]	0.5 (≈ 0.472 µM)	0.5	0.06		
CO[C@H]1/C=C/O[C@@]2(C)Oc3c(C)c(O)c4c(c3C2=O)C2=NC3(CCN(CC(C)C)CC3)NC2=C(NC(=O)/C(C)=C\C=C\[C@H](C)[C@H](O)[C@@H](C)[C@@H](O)[C@@H](C)[C@H](OC(=O)CC(=O)OC2CCN(C)CC2)[C@@H]1C)C4=O [Compound 45]	0.06 (≈ 0.0607 µM)	0.5	0.004		
CO[C@H]1/C=C/O[C@@]2(C)Oc3c(C)c(O)c4c(c3C2=O)C2=NC3(CCN(CC(C)C)CC3)NC2=C(NC(=O)/C(C)=C\C=C\[C@H](C)[C@H](O)[C@@H](C)[C@@H](O)[C@@H](C)[C@H](OC(=O)CC(=O)N2CCC(n3c(=O)[nH]c5ccccc53)CC2)[C@@H]1C)C4=O [Compound 46]	0.25 (≈ 0.229 µM)	0.5	0.03		
CO[C@H]1/C=C/O[C@@]2(C)Oc3c(C)c(O)c4c(c3C2=O)C2=NC3(CCN(CC(C)C)CC3)NC2=C(NC(=O)/C(C)=C\C=C\[C@H](C)[C@H](O)[C@@H](C)[C@@H](O)[C@@H](C)[C@H](OC(=O)CC(=O)N2CCC(n3c(=O)[nH]c5cc(Cl)ccc53)CC2)[C@@H]1C)C4=O [Compound 47]	1 (≈ 0.889 µM)	0.5	0.125		
CO[C@H]1/C=C/O[C@@]2(C)Oc3c(C)c(O)c4c(c3C2=O)C2=NC3(CCN(CC(C)C)CC3)NC2=C(NC(=O)/C(C)=C\C=C\[C@H](C)[C@H](O)[C@@H](C)[C@@H](O)[C@@H](C)[C@H](OC(=O)CC(=O)N2CCC3(CC2)C(=O)NCN3c2ccccc2)[C@@H]1C)C4=O [Compound 48]	0.25 (≈ 0.226 µM)	0.5	0.03		
COc1cc(CC2CCN(C(=O)CC(=O)O[C@H]3[C@H](C)[C@H](O)[C@H](C)[C@@H](O)[C@@H](C)/C=C/C=C(/C)C(=O)NC4=C5NC6(CCN(CC(C)C)CC6)N=C5c5c(c(O)c(C)c6c5C(=O)[C@@](C)(O/C=C/[C@H](OC)[C@H]3C)O6)C4=O)CC2)cc(C(F)(F)F)c1 [Compound 51]	2 (≈ 1.74 µM)	1	0.06		
CO[C@H]1/C=C/O[C@@]2(C)Oc3c(C)c(O)c4c(c3C2=O)C2=NC3(CCN(CC(C)C)CC3)NC2=C(NC(=O)/C(C)=C\C=C\[C@H](C)[C@H](O)[C@@H](C)[C@@H](O)[C@@H](C)[C@H](OC(=O)CC(=O)N2CCC([C@@H](O)c3nccn3C)CC2)[C@@H]1C)C4=O [Compound 53]	0.125 (≈ 0.117 µM)	1	≤ 0.002		
CO[C@H]1/C=C/O[C@@]2(C)Oc3c(C)c(O)c4c(c3C2=O)C2=NC3(CCN(CC(C)C)CC3)NC2=C(NC(=O)/C(C)=C\C=C\[C@H](C)[C@H](O)[C@@H](C)[C@@H](O)[C@@H](C)[C@H](OC(=O)CC(=O)N2CCC(N3CCCCC3)CC2)[C@@H]1C)C4=O [Compound 58]	0.03 (≈ 0.0288 µM)	1	≤ 0.002		
CO[C@H]1/C=C/O[C@@]2(C)Oc3c(C)c(O)c4c(c3C2=O)C2=NC3(CCN(CC(C)C)CC3)NC2=C(NC(=O)/C(C)=C\C=C\[C@H](C)[C@H](O)[C@@H](C)[C@@H](O)[C@@H](C)[C@H](OC(=O)CC(=O)N2CCC(NC(=O)OC(C)(C)C)CC2)[C@@H]1C)C4=O [Compound 59]	0.125 (≈ 0.116 µM)	0.5	0.008		
CO[C@H]1/C=C/O[C@@]2(C)Oc3c(C)c(O)c4c(c3C2=O)C2=NC3(CCN(CC(C)C)CC3)NC2=C(NC(=O)/C(C)=C\C=C\[C@H](C)[C@H](O)[C@@H](C)[C@@H](O)[C@@H](C)[C@H](OC(=O)CC(=O)N2CCC(n3cccn3)CC2)[C@@H]1C)C4=O [Compound 60]	0.03 (≈ 0.0293 µM)	0.5	≤ 0.002		
CO[C@H]1/C=C/O[C@@]2(C)Oc3c(C)c(O)c4c(c3C2=O)C2=NC3(CCN(CC(C)C)CC3)NC2=C(NC(=O)/C(C)=C\C=C\[C@H](C)[C@H](O)[C@@H](C)[C@@H](O)[C@@H](C)[C@H](OC(=O)CC(=O)N2CCC(NS(=O)(=O)c3ccccc3)CC2)[C@@H]1C)C4=O [Compound 61]	0.125 (≈ 0.112 µM)			0.5	0.008
CO[C@H]1/C=C/O[C@@]2(C)Oc3c(C)c(O)c4c(c3C2=O)C2=NC3(CCN(CC(C)C)CC3)NC2=C(NC(=O)/C(C)=C\C=C\[C@H](C)[C@H](O)[C@@H](C)[C@@H](O)[C@@H](C)[C@H](OC(=O)CC(=O)N2CCC(N3CCn5ccnc5C3)CC2)[C@@H]1C)C4=O [Compound 62]	0.06 (≈ 0.0556 µM)	1	≤ 0.002		
CO[C@H]1/C=C/O[C@@]2(C)Oc3c(C)c(O)c4c(c3C2=O)C2=NC3(CCN(CC(C)C)CC3)NC2=C(NC(=O)/C(C)=C\C=C\[C@H](C)[C@H](O)[C@@H](C)[C@@H](O)[C@@H](C)[C@H](OC(=O)CC(=O)N2CC(Nc3ccc(F)cc3)C2)[C@@H]1C)C4=O [Compound 63]	0.25 (≈ 0.241 µM)	0.5	0.016		
CO[C@H]1/C=C/O[C@@]2(C)Oc3c(C)c(O)c4c(c3C2=O)C2=NC3(CCN(CC(C)C)CC3)NC2=C(NC(=O)/C(C)=C\C=C\[C@H](C)[C@H](O)[C@@H](C)[C@@H](O)[C@@H](C)[C@H](OC(=O)CC(=O)N2CC(n3ccnn3)C2)[C@@H]1C)C4=O [Compound 64]	0.06 (≈ 0.0602 µM)	1	≤ 0.002		
CO[C@H]1/C=C/O[C@@]2(C)Oc3c(C)c(O)c4c(c3C2=O)C2=NC3(CCN(CC(C)C)CC3)NC2=C(NC(=O)/C(C)=C\C=C\[C@H](C)[C@H](O)[C@@H](C)[C@@H](O)[C@@H](C)[C@H](OC(=O)CC(=O)N2CCc3[nH]c5ccccc5c3C2)[C@@H]1C)C4=O [Compound 65]	0.125 (≈ 0.12 µM)	0.5	0.016		
CO[C@H]1/C=C/O[C@@]2(C)Oc3c(C)c(O)c4c(c3C2=O)C2=NC3(CCN(CC(C)C)CC3)NC2=C(NC(=O)/C(C)=C\C=C\[C@H](C)[C@H](O)[C@@H](C)[C@@H](O)[C@@H](C)[C@H](OC(=O)CCC(=O)NCCN(C)C)[C@@H]1C)C4=O [Compound 72]	0.06 (≈ 0.0615 µM)	1	≤ 0.002		
CO[C@H]1/C=C/O[C@@]2(C)Oc3c(C)c(O)c4c(c3C2=O)C2=NC3(CCN(CC(C)C)CC3)NC2=C(NC(=O)/C(C)=C\C=C\[C@H](C)[C@H](O)[C@@H](C)[C@@H](O)[C@@H](C)[C@H](OC(=O)CCC(=O)OCC2CCCN(C)C2)[C@@H]1C)C4=O (stereo partly drawn) [Compound 73]	0.06 (≈ 0.059 µM)	1	≤ 0.002		
CO[C@H]1/C=C/O[C@@]2(C)Oc3c(C)c(O)c4c(c3C2=O)C2=NC3(CCN(CC(C)C)CC3)NC2=C(NC(=O)/C(C)=C\C=C\[C@H](C)[C@H](O)[C@@H](C)[C@@H](O)[C@@H](C)[C@H](OC(=O)CCCC(=O)OCC2CCCN(C)C2)[C@@H]1C)C4=O (stereo partly drawn) [Compound 74]	0.06 (≈ 0.0582 µM)	1	≤ 0.002		
